Measurements published in US4137311A, “Synergistic compositions and method of use” (William H. Rorer, Inc., priority 1977, dated 1979).
Where a name gives a salt, the structure may show the parent alone.

Tests used:
[1] = tested on: Croton-Oil Induced Inflammation To The Mouse's Ear; test: Delayed co-application to existing croton-oil induced inflammation of the mouse's ear (Table II), edema weight and percent inhibition; conditions: for Ear edema weight (± S.D.): control 14.9±3.8
Procedure: (§1) Hydrocortisone and bis-(2-pyridyl-1-oxide) disulfide magnesium sulfate were suspended or dissolved in ethanol U.S.P. (200 proof) at concentrations of 20, 40 and 80 mg/ml of bis-(2-pyridyl-1-oxide) disulfide magnesium sulfate and 0.01, 1 and 10 mg of hydrocortisone.
Groups of mice treated with only the croton oil irritant solution served as controls. The right ear of mice in any group was not treated.
(§2) Four hours after application of the irritant vehicle (three hours after drug application) both ears were amputated and one circular section was exercised from each ear using a No. 4 cork borer (7 mm i.d.). The ear sections were then weighed. The increase in weight due to edema formation caused by the croton oil in the treated ear and reduction of the edema caused by treatment with bis-(2-pyridyl-1-oxide) disulfide magnesium sulfate hydrocortisone or combinations thereof was determined by subtracting the weight of the untreated right ear section from that of the treated left ear section.

[2] = tested on: Croton-Oil Induced Inflammation To The Mouse's Ear; test: Immediate co-administration: croton-oil induced inflammation of the mouse's ear (Table I), edema weight and percent inhibition; conditions: immediate application; for Ear edema weight (± S.D.): control 16.9±3.0
Procedure: Mathematical determination of the synergistic effects of combinations of bis-(2-pyridyl-1-oxide) disulfide magnesium sulfate and hydrocortisone was done using a modification of the method described by Van Arman, C.
as §1, §2
Ethanol was used as the vehicle; pyridine contained in the usual irritant vehicle as described previously produces an alkaline reaction. Controls were treated with only the croton oil vehicle.
A fixed dose of 4 mg/ear of bis-(2-pyridyl-1-oxide) disulfide magnesium sulfate was co-applied with 0.01, 0.1 and 1 mg/ear of hydrocortisone.

[3] = Solubility in ethanol U.S.P. (200 proof)
[4] = delayed application, hydrocortisone (free alcohol) alone 0.01 mg/ear
[5] = delayed application, hydrocortisone (free alcohol) alone 0.1 mg/ear
[6] = delayed application, hydrocortisone (free alcohol) alone 1.0 mg/ear
[7] = hydrocortisone alone 0.1 mg/ear
[8] = hydrocortisone alone 1.0 mg/ear
[9] = delayed application, adduct alone 4 mg/ear
[10] = delayed application, adduct alone 8 mg/ear
[11] = adduct alone, topical dose 4 mg/ear

Question: Which results are given for `C[C@]12CCC(=O)C=C1CC[C@@H]1[C@@H]2[C@@H](O)C[C@@]2(C)[C@H]1CC[C@]2(O)C(=O)CO` [Hydrocortisone]?
Answer: Percent inhibition of ear edema [1, 4]: 17.5%; Ear edema weight (± S.D.) [1, 4]: 12.3 ± 3.3 mg; Percent inhibition of ear edema [1, 5]: 40.3%; Ear edema weight (± S.D.) [1, 5]: 8.9 ± 2.3 mg; Percent inhibition of ear edema [1, 6]: 58.4%; Ear edema weight (± S.D.) [1, 6]: 6.2 ± 2.4 mg; dose of hydrocortisone by itself necessary to achieve a similar response (46.3%) ([1]; delayed application, hydrocortisone alone): 0.25 mg/ear; expected anti-inflammatory response by extrapolation of dose-response line ([1]; hydrocortisone by itself 0.00125 mg/ear): little, if any, significant anti-inflammatory response; Percent inhibition of ear edema ([2]; hydrocortisone alone 0.01 mg/ear (Table I)): 23.1%; Ear edema weight (± S.D.) ([2]; hydrocortisone alone 0.01 mg/ear): 13.0 ± 3.8 mg; Percent inhibition of ear edema [2, 7]: 53.3%; Ear edema weight (± S.D.) [2, 7]: 7.9 ± 2.3 mg; Percent inhibition of ear edema [2, 8]: 67.5%; Ear edema weight (± S.D.) [2, 8]: 5.5 ± 2.6 mg; inhibition ([2]; hydrocortisone alone, dose printed in text 0.01 mg/ear): 53.3%

Question: With `[O-][n+]1ccccc1SSc1cccc[n+]1[O-]` [bis-(2-pyridyl-1-oxide) disulfide magnesium sulfate] as the compound, how does the “solubility in the alcohol vehicle” value [3] read?
Answer: formed a fine suspension

Question: What about the “expected anti-inflammatory response by extrapolation of dose-response line” value ([1]; adduct by itself 0.87 mg/ear) of the same compound?
Answer: little, if any, significant anti-inflammatory response

Question: What about the “Ear edema weight (± S.D.)” value ([1]; delayed application, 1 hour after croton oil, adduct alone 2 mg/ear) of the same compound?
Answer: 12.7 ± 2.4 mg

Question: And the “dose of adduct by itself necessary to achieve a similar response (46.3%)” value ([1]; delayed application, adduct alone)?
Answer: 17.7 mg/ear

Question: What about the “Percent inhibition of ear edema” value ([1]; delayed application, adduct alone 2 mg/ear) of the same compound?
Answer: 14.8%

Question: What about the “Percent inhibition of ear edema” value [1, 9] of the same compound?
Answer: 23.5%

Question: What about the “Ear edema weight (± S.D.)” value [1, 9] of the same compound?
Answer: 11.4 ± 2.8 mg

Question: And the “Percent inhibition of ear edema” value [1, 10]?
Answer: 35.6%

Question: And the “Ear edema weight (± S.D.)” value [1, 10]?
Answer: 9.6 ± 2.2 mg

Question: And the “Percent inhibition of ear edema” value [2, 11]?
Answer: 24.9%

Question: What about the “Ear edema weight (± S.D.)” value [2, 11] of the same compound?
Answer: 12.7 ± 3.0 mg
